In PubChem BioAssay (NCI) one finds GI50 and TGI data, which are given here for eight compounds.

Test systems include RPMI-8226 leukemia; RXF 393 renal; HCT-116 colon; UACC-62 melanoma; KM12 colon; HS 578T breast; SK-MEL-5 melanoma; MALME-3M melanoma; NCI-H226 lung; CCRF-CEM leukemia.
Common to all, as to experiment: NCI-60 cell line screen, 48 h

Structures are written as SMILES. “And” between values parts separate entries of the source, which are not always exact repeats. Equal entries are not always repeated.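 Assay format: 96-well plates, 48-hour exposure. Here, GI50 denotes the concentration required for 50% inhibition of growth. TGI: total growth inhibition.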

For `Nc1ccccc1C#C/C=C\C#Cc1ccccc1F`, the GI50 in the assay with RPMI-8226 leukemia was 2.66 µM; with RXF 393 renal, 17.8 µM; with HCT-116 colon it was 3.52 µM; in the assay on UACC-62 melanoma, 7.72 µM; in the assay on KM12 colon, 2.1 µM; in the assay on HS 578T breast, 2.09 µM. Moreover, the GI50 with SK-MEL-5 melanoma is 2.73 µM; with MALME-3M melanoma, 2.62 µM; with NCI-H226 lung, 15.2 µM; with CCRF-CEM leukemia, 0.729 µM. Also, the TGI stood at 23.8 µM in the assay on RPMI-8226 leukemia; 57.5 µM in the assay on RXF 393 renal; 16.1 µM in the assay with HCT-116 colon; 21 µM in the assay with UACC-62 melanoma; 11 µM with KM12 colon; 5.1 µM in the assay on HS 578T breast. For the same compound, the TGI in the assay with SK-MEL-5 melanoma was determined as 12.3 µM; in the assay with MALME-3M melanoma, 13.9 µM; in the assay on NCI-H226 lung, 33.3 µM; with CCRF-CEM leukemia it was 7.14 µM.

For `Oc1ccc(Cn2c(-c3ccc(O)cc3)nc3ccccc32)cc1`, the TGI with RPMI-8226 leukemia, in the assay on RXF 393 renal, in the assay on HCT-116 colon, with UACC-62 melanoma, in the assay on KM12 colon and with HS 578T breast was more than 100 µM throughout. Further, the TGI in the assay on SK-MEL-5 melanoma, with MALME-3M melanoma, in the assay with NCI-H226 lung and in the assay with CCRF-CEM leukemia was more than 100 µM in each case.

For the compound `Nc1nc(Cl)nc2c1ncn2[C@@H]1O[C@H](COS(N)(=O)=O)[C@@H](O)[C@H]1O`, the GI50 in the assay with RPMI-8226 leukemia was 0.0251 µM and 0.0255 µM; in the assay with RXF 393 renal, 0.019 µM and 0.0229 µM; in the assay on HCT-116 colon, 0.0183 µM and 0.0251 µM; with UACC-62 melanoma, 0.019 µM and 0.0217 µM; in the assay on KM12 colon it was 0.0232 µM and 0.0321 µM; with HS 578T breast it was 0.0263 µM and 0.0256 µM. In addition, the GI50 with SK-MEL-5 melanoma is 0.0168 µM and 0.0179 µM; with MALME-3M melanoma, 0.0188 µM and 0.0209 µM; in the assay on NCI-H226 lung it was 0.0174 µM and 0.0167 µM; with CCRF-CEM leukemia it was 0.0159 µM and 0.027 µM. The TGI with RPMI-8226 leukemia is 0.0975 µM and 0.072 µM; in the assay on RXF 393 renal it was 0.0475 µM and 0.0496 µM; with HCT-116 colon, 0.104 µM and 0.0767 µM; in the assay on UACC-62 melanoma, 0.044 µM and 0.0561 µM; with KM12 colon, 0.0707 µM and 0.166 µM; with HS 578T breast it was 0.0869 µM and 0.0787 µM. The TGI was 0.0313 µM and 0.033 µM with SK-MEL-5 melanoma; 0.0403 µM and 0.0456 µM in the assay on MALME-3M melanoma; 0.0401 µM and 0.0463 µM in the assay with NCI-H226 lung; 0.101 µM in the assay on CCRF-CEM leukemia.

Regarding `O=C(NN1C(=O)CSC12CCC(c1ccccc1)CC2)c1[nH]c2ccc(F)cc2c1-c1ccccc1` (stereo not given), the GI50 with RPMI-8226 leukemia was 13.8 µM; in the assay with RXF 393 renal it was 15.3 µM; with HCT-116 colon, 14 µM; with UACC-62 melanoma, 10.8 µM; in the assay with KM12 colon, 16 µM; with HS 578T breast it was 21.4 µM. Also, the GI50 with SK-MEL-5 melanoma was 17.5 µM; in the assay on MALME-3M melanoma, 16.2 µM; with NCI-H226 lung it was 19.2 µM; with CCRF-CEM leukemia, 19.4 µM. In addition, the TGI in the assay with RPMI-8226 leukemia stood at 31.8 µM; in the assay on RXF 393 renal, 29.5 µM; with HCT-116 colon, 27.1 µM; in the assay on UACC-62 melanoma, 23.8 µM; in the assay with KM12 colon, 30.7 µM; in the assay with HS 578T breast it was 52.3 µM. Also, the TGI was 32.3 µM with SK-MEL-5 melanoma, 30.9 µM with MALME-3M melanoma, 38.6 µM with NCI-H226 lung and 41.1 µM with CCRF-CEM leukemia.

`CCc1nc(N)nc(N)c1C#CC(C)c1cc(-c2ccnc(C)c2)c2oc(C)nc2c1` (stereo not given): the GI50 with RPMI-8226 leukemia is 0.0771 µM; in the assay on RXF 393 renal it was 0.0395 µM; with HCT-116 colon, less than 0.01 µM; in the assay on UACC-62 melanoma it was less than 0.01 µM; in the assay on KM12 colon, 0.0201 µM; in the assay with HS 578T breast it was 1.5 µM. Moreover, the GI50 with SK-MEL-5 melanoma is less than 0.01 µM; in the assay on MALME-3M melanoma, 2.11 µM; in the assay with NCI-H226 lung, 0.913 µM; with CCRF-CEM leukemia it was less than 0.01 µM. The TGI in the assay with RPMI-8226 leukemia was 3.31 µM; in the assay with RXF 393 renal it was 2.71 µM; in the assay on HCT-116 colon, 10.9 µM; in the assay on UACC-62 melanoma, 3.23 µM; in the assay with KM12 colon, 10.9 µM; with HS 578T breast, 13.9 µM. The TGI in the assay with SK-MEL-5 melanoma was found to be 1.49 µM; in the assay with MALME-3M melanoma, 14.4 µM; with NCI-H226 lung, 11.2 µM; in the assay on CCRF-CEM leukemia, 29.9 µM.

As to `O=C1OC(OC/C(Br)=C(/Br)COC2OC(=O)C(Cl)=C2Cl)C(Cl)=C1Cl` (stereo not given), the TGI came to 5.19 µM in the assay with RPMI-8226 leukemia; 13.4 µM with RXF 393 renal; 10 µM in the assay on HCT-116 colon; 29.1 µM with UACC-62 melanoma; 21.8 µM with KM12 colon; 64.7 µM with HS 578T breast. Moreover, the TGI in the assay on SK-MEL-5 melanoma is 26.8 µM; with MALME-3M melanoma it was 21.2 µM; in the assay on NCI-H226 lung it was more than 70.7 µM; with CCRF-CEM leukemia it was 4.93 µM.

In the case of `COC1C(O)C(C)OC(O[C@@H]2C[C@H]3CC[C@@H]4[C@H](CC[C@]5(C)[C@@H](C6=CC(=O)OC6)CC[C@]45O)[C@@]3(C)[C@H](O)C2)C1O` (stereo not given in full), the TGI in the assay with RPMI-8226 leukemia is 0.0725 µM; in the assay on RXF 393 renal it was 0.0363 µM; with HCT-116 colon it was 0.0994 µM; with UACC-62 melanoma it was 0.647 µM; with KM12 colon, 1.8 µM; in the assay with HS 578T breast it was more than 100 µM. Besides, the TGI in the assay on SK-MEL-5 melanoma was 0.122 µM; in the assay on MALME-3M melanoma, 0.119 µM; in the assay on NCI-H226 lung, 0.532 µM; with CCRF-CEM leukemia it was more than 100 µM.

On to `C=C1C(=O)O[C@H]2[C@H]1CC/C(CNC(=O)/C=C/c1ccc(Cl)cc1Cl)=C\CC[C@@]1(C)O[C@@H]21`, for which the GI50 with RPMI-8226 leukemia was 0.329 µM; with RXF 393 renal it was 0.403 µM; in the assay on HCT-116 colon it was 0.647 µM; in the assay with UACC-62 melanoma it was 1.33 µM; with KM12 colon it was 1.62 µM; with HS 578T breast, 2.09 µM. Further, the GI50 with SK-MEL-5 melanoma is 1.63 µM; with MALME-3M melanoma it was 1.29 µM; in the assay on NCI-H226 lung, 2.33 µM; with CCRF-CEM leukemia it was 0.304 µM. The TGI stood at 1.54 µM in the assay on RPMI-8226 leukemia; 1.63 µM in the assay on RXF 393 renal; 2 µM in the assay with HCT-116 colon; 2.9 µM with UACC-62 melanoma; 3.03 µM with KM12 colon; 8.23 µM in the assay on HS 578T breast. Moreover, the TGI with SK-MEL-5 melanoma came out at 3.02 µM; with MALME-3M melanoma, 2.7 µM; in the assay on NCI-H226 lung it was 5.72 µM; in the assay with CCRF-CEM leukemia it was 1.19 µM.
